Measured values from PubChem BioAssay AID184 (DTP/NCI, 2004).
Values joined by “and” are separate entries in the source; they are usually repeats but may differ in a detail not shown here. Identical values can stand only once. Toxic doses and inconclusive results are not listed.

Tested on: BALB/cJ mice, ADJ-PC-6 ip tumor, median survival T/C
Experiment: NCI In Vivo Anticancer Drug Screen. Data for tumor model ADJ-PC-6 (intraperitoneal) in BALB/cJ mice
Details: endpoint: median survival time, higher = longer survival
Protocol: The antitumor activity of compounds was measured in mice bearing transplantable tumors. Survival or tumor size were measured and the results are expressed as the measurement made in the treated group (T) divided by the measurement made in the vehicle treated control group (C). The tumor model used in this assay is ADJ-PC-6 (intraperitoneal) in BALB/cJ mice

[1] = dose: 2.0 mg/kg/injection, schedule: Q04DX003 (ip), vehicle: saline
[2] = dose: 0.25 mg/kg/injection, schedule: Q04DX003 (ip), vehicle: saline
[3] = dose: 0.5 mg/kg/injection, schedule: Q04DX003 (ip), vehicle: saline
[4] = dose: 1.0 mg/kg/injection, schedule: Q04DX003 (ip), vehicle: saline

For COc1cc2c(c(OC)c1OC)-c1ccc(OC)c(=O)cc1[C@@H](NC(C)=O)CC2, the T/C (dose: 0.05 mg/kg/injection, schedule: Q01DX009 (ip), vehicle: Klucel (hydroxypropylcellulose) (HPC)) was 99 % of control, the T/C (dose: 0.1 mg/kg/injection, schedule: Q01DX009 (ip), vehicle: Klucel (hydroxypropylcellulose) (HPC)) was 88 % of control and the T/C (dose: 0.2 mg/kg/injection, schedule: Q01DX009 (ip), vehicle: Klucel (hydroxypropylcellulose) (HPC)) was 102 % of control. For the same molecule, the T/C (dose: 0.4 mg/kg/injection, schedule: Q01DX009 (ip), vehicle: Klucel (hydroxypropylcellulose) (HPC)) was 108 % of control.
COc1cccc2c1C(=O)c1c(O)c3c(c(O)c1C2=O)C[C@@](O)(C(C)=O)C[C@@H]3OC1CC(N)C(O)C(C)O1 (stereo partly specified) was tested, and the T/C (dose: 0.38 mg/kg/injection, schedule: Q04DX003 (ip), vehicle: saline) was 101 % of control, the T/C (dose: 1.5 mg/kg/injection, schedule: Q04DX003 (ip), vehicle: saline) was 174 % of control and the T/C [1] was 177 % of control. The T/C (dose: 3.0 mg/kg/injection, schedule: Q04DX003 (ip), vehicle: saline) was 117 % of control.
CCC1(O)CC2CN(CCc3c([nH]c4ccccc34)C(C(=O)OC)(c3cc4c(cc3OC)N(C)C3C(O)(C(N)=O)C(O)C5(CC)C=CCN6CCC43C65)C2)C1 (stereo unspecified) (tested in a mixture with another compound) was tested, and the T/C [2] was 92 % of control and 100 % of control, the T/C [3] was 106 % of control and the T/C [4] was 102 % of control. The T/C [1] was 115 % of control and 235 % of control.
With CC1OC(=O)C(C(C)C)NC(=O)C(C(C)C)OC(=O)C(C(C)C)NC(=O)C(C)OC(=O)C(C(C)C)NC(=O)C(C(C)C)OC(=O)C(C(C)C)NC(=O)C(C)OC(=O)C(C(C)C)NC(=O)C(C(C)C)OC(=O)C(C(C)C)NC1=O (stereo unspecified) the T/C (dose: 0.75 mg/kg/injection, schedule: Q04DX003 (ip), vehicle: Klucel (hydroxypropylcellulose) (HPC)) was 87 % of control, the T/C (dose: 1.5 mg/kg/injection, schedule: Q04DX003 (ip), vehicle: Klucel (hydroxypropylcellulose) (HPC)) was 102 % of control and the T/C (dose: 2.0 mg/kg/injection, schedule: Q01DX009 (ip), vehicle: Klucel (hydroxypropylcellulose) (HPC)) was 100 % of control. The T/C (dose: 4.0 mg/kg/injection, schedule: Q01DX009 (ip), vehicle: Klucel (hydroxypropylcellulose) (HPC)) was 104 % of control and the T/C (dose: 8.0 mg/kg/injection, schedule: Q01DX009 (ip), vehicle: Klucel (hydroxypropylcellulose) (HPC)) was 185 % of control.
Nc1nc(=S)c2[nH]cnc2[nH]1 was tested, and the T/C (dose: 0.5 mg/kg/injection, schedule: Q01DX009 (ip), vehicle: alkali diluted with saline) was 194 % of control and 239 % of control, the T/C (dose: 1.0 mg/kg/injection, schedule: Q01DX009 (ip), vehicle: alkali diluted with saline) was 194 % of control and 267 % of control and the T/C (dose: 2.0 mg/kg/injection, schedule: Q01DX009 (ip), vehicle: alkali diluted with saline) was 194 % of control and 267 % of control. The T/C (dose: 4.0 mg/kg/injection, schedule: Q01DX009 (ip), vehicle: alkali diluted with saline) was 194 % of control.
For CN(C)CNC(=O)c1ccccc1, the T/C (dose: 20.0 mg/kg/injection, schedule: Q01DX009 (ip), vehicle: water) was 102 % of control, the T/C (dose: 40.0 mg/kg/injection, schedule: Q01DX009 (ip), vehicle: water) was 102 % of control and the T/C (dose: 80.0 mg/kg/injection, schedule: Q01DX009 (ip), vehicle: water) was 115 % of control. The T/C (dose: 160.0 mg/kg/injection, schedule: Q01DX009 (ip), vehicle: water) was 107 % of control.
With COC(=O)C[C@](O)(CCCC(C)(C)O)C(=O)O[C@@H]1C(OC)=C[C@]23CCCN2CCc2cc4c(cc2[C@H]13)OCO4 the T/C [2] was 104 % of control, the T/C [3] was 93 % of control and the T/C [4] was 88 % of control. The T/C [1] was 104 % of control and the T/C (dose: 4.0 mg/kg/injection, schedule: Q04DX003 (ip), vehicle: saline) was 102 % of control.
For ClCC[N+]12CC[N+](CCCl)(CC1)C2, the T/C (dose: 10.0 mg/kg/injection, schedule: Q01DX009 (ip), vehicle: saline) was 88 % of control and 96 % of control and 111 % of control, the T/C (dose: 20.0 mg/kg/injection, schedule: Q01DX009 (ip), vehicle: saline) was 100 % of control and 103 % of control and the T/C (dose: 40.0 mg/kg/injection, schedule: Q01DX009 (ip), vehicle: saline) was 106 % of control. For the same molecule, the T/C (dose: 80.0 mg/kg/injection, schedule: Q01DX009 (ip), vehicle: saline) was 107 % of control and 113 % of control (2×) and the T/C (dose: 160.0 mg/kg/injection, schedule: Q01DX009 (ip), vehicle: saline) was 96 % of control and 102 % of control and 103 % of control.
In the case of N[C@H](C(=O)O)[C@@H]1CC(Cl)=NO1, the T/C (dose: 1.0 mg/kg/injection, schedule: Q01DX009 (ip), vehicle: saline) is reported as 121 % of control.
In the case of O=C(O)c1ccc(C(=O)O)o1.[NH-]C1CCCCC1[NH-].[Pt+2], the T/C (dose: 2.59 mg/kg/injection, schedule: Q04DX003 (ip), vehicle: water) is reported as 265 % of control, the T/C (dose: 4.3 mg/kg/injection, schedule: Q04DX003 (ip), vehicle: water) is reported as 254 % of control and the T/C (dose: 7.2 mg/kg/injection, schedule: Q04DX003 (ip), vehicle: water) is reported as 367 % of control. The T/C (dose: 12.0 mg/kg/injection, schedule: Q04DX003 (ip), vehicle: water) was 234 % of control and the T/C (dose: 20.0 mg/kg/injection, schedule: Q04DX003 (ip), vehicle: water) was 451 % of control.
For COc1cc(NS(C)(=O)=O)ccc1Nc1c2ccccc2nc2ccccc12, the T/C (dose: 5.0 mg/kg/injection, schedule: Q04DX003 (ip), vehicle: other) was 161 % of control and the T/C (dose: 10.0 mg/kg/injection, schedule: Q04DX003 (ip), vehicle: other) was 205 % of control.
In the case of CC(C)NC(=O)OCc1c(COC(=O)NC(C)C)c(-c2ccc(Cl)c(Cl)c2)n2c1CCC2, the T/C (dose: 3.75 mg/kg/injection, schedule: Q01DX009 (ip), vehicle: saline with Tween-80) is reported as 235 % of control, the T/C (dose: 5.0 mg/kg/injection, schedule: Q01DX009 (ip), vehicle: saline with Tween-80) is reported as 222 % of control and the T/C (dose: 7.5 mg/kg/injection, schedule: Q01DX009 (ip), vehicle: saline with Tween-80) is reported as 235 % of control. The T/C (dose: 10.0 mg/kg/injection, schedule: Q01DX009 (ip), vehicle: saline with Tween-80) was 222 % of control, the T/C (dose: 15.0 mg/kg/injection, schedule: Q01DX009 (ip), vehicle: saline with Tween-80) was 235 % of control and the T/C (dose: 20.0 mg/kg/injection, schedule: Q01DX009 (ip), vehicle: saline with Tween-80) was 222 % of control. For the same molecule, the T/C (dose: 30.0 mg/kg/injection, schedule: Q01DX009 (ip), vehicle: saline with Tween-80) was 235 % of control and the T/C (dose: 60.0 mg/kg/injection, schedule: Q01DX009 (ip), vehicle: saline with Tween-80) was 235 % of control.
